In ChEMBL document CHEMBL5335864 (ACS Med Chem Lett, 2024):

Test system: Plasmodium falciparum
Assay: Antiplasmodial activity against Plasmodium falciparum NF54 infected in human erythrocytes measured after 48 hrs by [3H]hypoxanthine incorporation assay
Type: functional, organism-based
Settings: NF54, Erythrocyte

IC50: 219 nM
Structure (SMILES): FC1CN(CCc2ccc(-c3noc(C(F)(F)F)n3)cc2)CCC1Nc1nc2ccccc2[nH]1 (stereo unspecified)
